In patent US8119569B2, “Benzoylpyrazole compounds, process for their production and herbicides containing them” (Ishihara Sangyo Kaisha, Ltd., priority 2006, dated 2012):

Columns and labels:
Format in all cases: in vivo
[1] = system: velvetleaf (Abutilon theophrasti MEDIC.); assay: Test Example 1: foliar treatment, upland pot; details: 7 g/ha, 21st day after application
From the text: Upland field soil was put into a 1/170,000 hectare pot, and seeds of various plants were sown. […] The spray solutions thus prepared were applied for foliar treatment by a small sprayer.

[2] = system: barnyardgrass (Echinochloa crus-galli L.); assay: Test Example 1: foliar treatment, upland pot; details: 7 g/ha, 21st day after application
From the text: (§1) Upland field soil was put into a 1/170,000 hectare pot, and seeds of various plants were sown. When the respective plants reached predetermined leaf stage ((1) barnyardgrass (Echinochloa crus-galli L.): 1.0 to 3.3 leaf stage, (2) crabgrass (Digitaria sanguinalis L.): 1.2 to 3.0 leaf stage, (3) green foxtail (Setaria viridis L.): 1.5 to 3.3 leaf stage, (4) redroot pigweed (Amaranthus retroflexus L.): 0.1 to 2.0 leaf stage, (5) prickly sida (Sida spinosa L.): cotyledon stage to 2.0 leaf stage, (6) velvetleaf (Abutilon theophrasti MEDIC.): 0.1 to 2.0 leaf stage, (7) rice (Oryza sativa L.): 1.3 to 3.0 leaf stage, (8) corn (Zea mays L.): 2.5 to 3.4 leaf stage, and (9) soybean (Glycine max Merr.): primary leaf stage to 0.3 leaf stage), wettable powders or emulsifiable concentrates of the compounds of the present invention prepared in accordance with a conventional preparation method, were weighed so that the active ingredients became the prescribed amounts, and diluted with water in an amount corresponding to 500 liter per 1 hectare (containing 0.1 vol % of an agricultural spreader (“KUSARINOH”, manufactured by NIHON NOHYAKU CO., LTD.)). The spray solutions thus prepared were applied for foliar treatment by a small sprayer.

corn (Zea mays L.) [3] = assay: Test Example 1: foliar treatment, upland pot; details: 7 g/ha, 21st day after application, crop
From the text: as §1

[4] = system: crabgrass (Digitaria sanguinalis L.); assay: Test Example 1: foliar treatment, upland pot; details: 7 g/ha, 21st day after application
From the text: as §1

[5] = system: green foxtail (Setaria viridis L.); assay: Test Example 1: foliar treatment, upland pot; details: 7 g/ha, 21st day after application
From the text: as §1

[6] = system: redroot pigweed (Amaranthus retroflexus L.); assay: Test Example 1: foliar treatment, upland pot; details: 7 g/ha, 21st day after application
From the text: as §1

rice (Oryza sativa L.) [7] = assay: Test Example 1: foliar treatment, upland pot; details: 7 g/ha, 21st day after application, crop
From the text: as §1

[8] = system: soybean (Glycine max Merr.); assay: Test Example 1: foliar treatment, upland pot; details: 7 g/ha, 21st day after application, crop
From the text: as §1

[9] = system: barnyardgrass (Echinochloa crus-galli L.); assay: Test Example 2: soil application on the day after sowing; details: 250 g/ha, 19th to 22nd day after application
From the text: (§2) Upland field soil was put into a 1/170,000 hectare pot, and seeds of various plants (barnyardgrass (Echinochloa crus-galli L.), crabgrass (Digitaria sanguinalis L.), green foxtail (Setaria viridis L.), redroot pigweed (Amaranthus retroflexus L.), prickly sida (Sida spinosa L.), velvetleaf (Abutilon theophrasti MEDIC.), rice (oryza sativa L.), corn (Zea mays L.) and soybean (Glycine max Merr.)) were sown. On the day after sowing, wettable powders or emulsifiable concentrates of the compounds of the present invention prepared in accordance with a conventional preparation method, were weighed so that the active ingredients became the prescribed amounts, and diluted with water in an amount corresponding to 500 liter per 1 hectare, followed by soil application with a small sprayer.

corn (Zea mays L.) [10] = assay: as above; details: 250 g/ha, 19th to 22nd day after application, crop
From the text: as §2

[11] = system: crabgrass (Digitaria sanguinalis L.); assay: as above; details: 250 g/ha, 19th to 22nd day after application
From the text: as §2

[12] = system: green foxtail (Setaria viridis L.); assay: as above; details: 250 g/ha, 19th to 22nd day after application
From the text: as §2

[13] = system: prickly sida (Sida spinosa L.); assay: as above; details: 250 g/ha, 19th to 22nd day after application
From the text: as §2

[14] = system: redroot pigweed (Amaranthus retroflexus L.); assay: as above; details: 250 g/ha, 19th to 22nd day after application
From the text: as §2

rice (Oryza sativa L.) [15] = assay: as above; details: 250 g/ha, 19th to 22nd day after application, crop
From the text: as §2

[16] = system: soybean (Glycine max Merr.); assay: as above; details: 250 g/ha, 19th to 22nd day after application, crop
From the text: as §2

[17] = system: velvetleaf (Abutilon theophrasti MEDIC.); assay: as above; details: 250 g/ha, 19th to 22nd day after application
From the text: as §2

[18] = system: Japanese bulrush (Scirpus juncoides); assay: Test Example 4: paddy field pot, water application; details: 63 g/ha, 14th day after application
From the text: (§3) Paddy field soil was put into a 1/1,000,000 hectare pot, and seeds of barnyardgrass (Echinochloa oryzicola vasing.) and Japanese bulrush (Scirpus juncoides) were sown and lightly covered with soil. Then, pot was left to stand in a greenhouse in a state irrigated to a water depth of from 0.5 to 1 cm, and next day or two days later, tubers of Japanese ribbon waparo (Sagittaria pygmaea) were planted. Then, the irrigated water depth was maintained to be from 3 to 4 cm, and when barnyardgrass and Japanese bulrush reached 0.5 leaf stage, and Japanese ribbon waparo reached primary leaf stage, a water diluted solution of a wettable powder or an emulsifieable concentrate of the compound of the present invention prepared in accordance with a conventional preparation method, was uniformly dropwise applied by a pipette so that the amount of active ingredients would be a prescribed amount. Further, paddy field soil was put into a 1/1,000,000 pot, followed by soil puddling to an irrigated water depth of from 3 to 4 cm. Next day, rice (Oryza sativa L.) (var.: Nihonbare) of two leaf stage was transplanted in a transplantation depth of 3 cm. On the 4th day after transplantation, the compound of the present invention was applied in the same manner as described above.

[19] = system: Japanese ribbon waparo (Sagittaria pygmaea); assay: Test Example 4: paddy field pot, water application; details: 63 g/ha, 14th day after application
From the text: as §3

[20] = system: barnyardgrass (Echinochloa oryzicola vasing.); assay: Test Example 4: paddy field pot, water application; details: 63 g/ha, 14th day after application
From the text: as §3

[21] = system: rice (Oryza sativa L.) (var.: Nihonbare); assay: Test Example 4: paddy field pot, water application, transplanted rice; details: 63 g/ha, 21st day after application, crop
From the text: as §3

[22] = system: prickly sida (Sida spinosa L.); assay: Test Example 1: foliar treatment, upland pot; details: 7 g/ha, 21st day after application
From the text: as §1

Structure (SMILES) | Growth inhibition rate (%) Velvetleaf [1] [%] | Growth inhibition rate (%) Barnyardgrass [2] [%] | Growth inhibition rate (%) Corn (corn (Zea mays L.) [3]) [%] | Growth inhibition rate (%) Crabgrass [4] [%] | Growth inhibition rate (%) Green foxtail [5] [%] | Growth inhibition rate (%) Redroot pigweed [6] [%] | Growth inhibition rate (%) Rice (rice (Oryza sativa L.) [7]) [%] | Growth inhibition rate (%) Soybean [8] [%] | Growth inhibition rate (%) Barnyardgrass [9] [%] | Growth inhibition rate (%) Corn (corn (Zea mays L.) [10]) [%] | Growth inhibition rate (%) Crabgrass [11] [%] | Growth inhibition rate (%) Green foxtail [12] [%] | Growth inhibition rate (%) Prickly sida [13] [%] | Growth inhibition rate (%) Redroot pigweed [14] [%] | Growth inhibition rate (%) Rice (rice (Oryza sativa L.) [15]) [%] | Growth inhibition rate (%) Soybean [16] [%] | Growth inhibition rate (%) Velvetleaf [17] [%] | Growth inhibition rate (%) Japanese bulrush [18] [%] | Growth inhibition rate (%) Barnyardgrass [20] [%] | Growth inhibition rate (%) Rice [21] [%] | other results
CCOC(=O)OC(C)Oc1c(C(=O)c2ccc(S(C)(=O)=O)c(C(=O)OC)c2C)cnn1C (racemic) [compound 21] | 85 | 90 | 0 | 90 | 80 | 90 | 80 | 95 | 100 | 0 | 100 | 100 | 60 | 100 | 100 | 50 | 90 | 70 | 100 | 10 | Growth inhibition rate (%) Japanese ribbon waparo [19]: 70%
CCOC(=O)OC(C)Oc1c(C(=O)c2ccc(S(C)(=O)=O)c(COC)c2C)cnn1C (racemic) [compound 7] | 98 | 95 | 0 | 90 | 90 | 85 | 70 | 95 | 100 | 0 | 90 | 40 | 80 | 80 | 90 | 0 | 70 | 70 | 100 | 70 | Growth inhibition rate (%) Prickly sida [22]: 80%; Growth inhibition rate (%) Japanese ribbon waparo [19]: 60%
CCCOC(=O)OC(C)Oc1c(C(=O)c2ccc(S(C)(=O)=O)c(OCCOC)c2C)cnn1C (racemic) [compound 19] | 95 | 95 | 0 | 90 | 100 | 95 | 80 | 80 | 100 | 0 | 100 | 100 | 60 | 100 | 100 | 40 | 98 | 95 | 100 | 20 | Growth inhibition rate (%) Prickly sida [22]: 30%; Growth inhibition rate (%) Japanese ribbon waparo [19]: 95%
CCOC(=O)OC(C)Oc1c(C(=O)c2ccc(S(C)(=O)=O)c(COCC(F)(F)F)c2C)cnn1C (racemic) [compound 15] | 98 | 70 | 10 | 95 | 75 | 90 | 40 | 75 | 100 | 0 | 100 | 100 | 70 | 100 | 100 | 0 | 100 | 60 | 100 | 10 | Growth inhibition rate (%) Prickly sida [22]: 0%
COCCOc1c(S(C)(=O)=O)ccc(C(=O)c2cnn(C)c2OC(C)OC(=O)OC(C)C)c1C (racemic) [compound 4] | 98 | 100 | 0 | 90 | 100 | 90 | 30 | 90 | 100 | 0 | 100 | 95 | 90 | 95 | 90 | 0 | 70 | 95 | 100 | 50 | Growth inhibition rate (%) Prickly sida [22]: 40%; Growth inhibition rate (%) Japanese ribbon waparo [19]: 90%
CCOC(=O)OC(C)Oc1c(C(=O)c2ccc(S(C)(=O)=O)c(OCCOC)c2C)cnn1C(C)C (racemic) [compound 18] | 95 | 95 | 0 | 95 | 90 | 95 | 70 | 80 | 100 | 0 | 100 | 100 | 70 | 100 | 100 |  | 100 | 90 | 100 | 0 | Growth inhibition rate (%) Prickly sida [22]: 30%; Growth inhibition rate (%) Japanese ribbon waparo [19]: 90%
